The text below walks through data of PubChem BioAssay (NCI).

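A five-concentration, 48-hour dose response in 96-well plates underlies each endpoint, interpolated linearly between surrounding concentrations. GI50 marks 50% less growth. TGI is the concentration that stops growth completely.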

Among the test systems are BT-549 breast; IGROV1 ovarian; NCI-H460 lung; NCI-H522 lung; SW-620 colon; T-47D breast; UACC-62 melanoma; HOP-92 NSCLC; NCI-H226 lung; NCI-H23 lung.
Common to all, as to test: NCI anticancer screen, dose series, 48 h

Turning to `Cc1cc(N(CCCNc2ccnc3cc(Cl)ccc23)Cc2ccc3c(c2)OCO3)nc(N2CCOCC2)n1`, the GI50 was 0.334 µM in the assay on BT-549 breast; 0.338 µM with IGROV1 ovarian; 0.318 µM in the assay with NCI-H460 lung; 0.185 µM in the assay with NCI-H522 lung; 0.306 µM in the assay on SW-620 colon; 0.323 µM in the assay with T-47D breast. Besides, in the assay with UACC-62 melanoma, the GI50 was 0.217 µM. The TGI came to 23.5 µM with BT-549 breast; 3.47 µM in the assay with IGROV1 ovarian; 14.1 µM in the assay with NCI-H460 lung; 0.477 µM in the assay on NCI-H522 lung; 38.2 µM with SW-620 colon; 0.998 µM in the assay on T-47D breast. In the assay with UACC-62 melanoma, the TGI turned out to be 0.501 µM.

On to `COC12OCCN(C)C1=CC(=O)C1=NNC(C)C12` (centres undefined), for which the TGI with HOP-92 NSCLC, with IGROV1 ovarian, in the assay with NCI-H226 lung, with NCI-H23 lung, in the assay on NCI-H460 lung and in the assay with NCI-H522 lung was above 100 µM throughout. For the same molecule, the TGI in the assay on SW-620 colon and in the assay on UACC-62 melanoma was above 100 µM in each case.

Turning to `COc1cc(/C=C\c2cc(OC)c(OC)c(OC)c2)cc(N/C=C\C(=O)c2cc(OC)c(OC)c(OC)c2)c1OC`, the GI50 was 1.14 µM in the assay with HOP-92 NSCLC; 6.06 µM in the assay on IGROV1 ovarian; 5.46 µM in the assay on NCI-H226 lung; 4.22 µM in the assay on NCI-H23 lung; 3.93 µM in the assay with NCI-H460 lung; 4.12 µM in the assay with SW-620 colon. The GI50 was 1.68 µM in the assay with T-47D breast and 3.11 µM in the assay on UACC-62 melanoma. Moreover, the TGI was 6.56 µM with HOP-92 NSCLC; above 100 µM in the assay with IGROV1 ovarian; above 100 µM with NCI-H226 lung; above 100 µM in the assay with NCI-H23 lung; above 100 µM in the assay on NCI-H460 lung; above 100 µM with SW-620 colon. In addition, the TGI in the assay on T-47D breast was 6.83 µM; in the assay with UACC-62 melanoma, above 100 µM.

`COc1cccc2c1C(=O)c1c(O)c3c(c(O)c1C2=O)C[C@@](O)(/C(C)=N/NC(=O)c1ccc(Cl)cc1)C[C@@H]3OC1CC(N)C(O)C(C)O1` (some centres undefined): the GI50 is 0.192 µM in the assay on HOP-92 NSCLC; 0.138 µM in the assay on IGROV1 ovarian; 0.187 µM in the assay with NCI-H226 lung; 0.194 µM in the assay on NCI-H23 lung; 0.163 µM in the assay on T-47D breast. The TGI in the assay with HOP-92 NSCLC came out at 0.751 µM; in the assay with IGROV1 ovarian it was 2.74 µM; with NCI-H226 lung, 0.897 µM; in the assay with NCI-H23 lung, 1.12 µM; in the assay on T-47D breast it was 1.79 µM.

`[N-]=[N+]=N/C1=C/CCCCC(=O)C1`: the TGI with HOP-92 NSCLC, with IGROV1 ovarian, in the assay on NCI-H23 lung, in the assay on NCI-H460 lung, with NCI-H522 lung and with SW-620 colon was above 100 µM in each case. This molecule also came in with a TGI in the assay with UACC-62 melanoma above 100 µM.

`COc1ccc(-c2nnc(N3CCN(C(=O)CN4CCN(c5ccccc5)CC4)CC3)nc2-c2ccc(OC)cc2)cc1`: the GI50 in the assay with HOP-92 NSCLC was 3.49 µM; in the assay with IGROV1 ovarian, 11.1 µM; with NCI-H226 lung it was 3.76 µM; in the assay with NCI-H23 lung it was 6.92 µM; in the assay with NCI-H460 lung, 4.2 µM; in the assay on NCI-H522 lung, 7.44 µM. Also, the GI50 is 5.26 µM in the assay with SW-620 colon and 6.48 µM in the assay on UACC-62 melanoma. The TGI is 24 µM in the assay on HOP-92 NSCLC; above 100 µM in the assay with IGROV1 ovarian; above 100 µM in the assay on NCI-H226 lung; above 100 µM with NCI-H23 lung; above 100 µM with NCI-H460 lung; above 100 µM with NCI-H522 lung. The figures for the TGI in the assay with SW-620 colon and in the assay with UACC-62 melanoma were above 100 µM and 40 µM, respectively.

Regarding `CCN(CC)CCSc1c2ccccc2nc2c(OC)ccc(OC)c12`, the TGI with HOP-92 NSCLC was determined as 7.57 µM; in the assay with IGROV1 ovarian it was 51.4 µM; with NCI-H226 lung, 50.7 µM; in the assay on NCI-H23 lung, 27.9 µM; in the assay with NCI-H460 lung it was 36.4 µM; in the assay on NCI-H522 lung it was 19.8 µM. In addition, in the assay with UACC-62 melanoma, the TGI is above 22.2 µM.

`CCCCCCCN=C(N)c1ccc(N2CCN(c3ccc(C(N)=NCCCCCCC)cc3)CC2)cc1`: the GI50 with HOP-92 NSCLC is 0.463 µM; with NCI-H226 lung, 2.13 µM; in the assay on SW-620 colon, 0.259 µM; in the assay on UACC-62 melanoma, 0.346 µM. The TGI was above 100 µM in the assay with HOP-92 NSCLC; above 100 µM in the assay with NCI-H226 lung; above 80.8 µM in the assay on NCI-H460 lung; 0.0351 µM with NCI-H522 lung; above 31.7 µM in the assay with SW-620 colon; above 93.4 µM in the assay on T-47D breast.

Regarding `CN(C)CCSc1cc(-c2ccccc2)c2ccccc2n1`, the TGI in the assay on BT-549 breast came out at 24.8 µM; in the assay on IGROV1 ovarian, 25.5 µM; with NCI-H226 lung, 33.4 µM; with NCI-H23 lung, 23.1 µM; in the assay on NCI-H522 lung, 24.1 µM; in the assay on SW-620 colon, 23.2 µM. In addition, the TGI is 34.4 µM in the assay on T-47D breast and 9.45 µM in the assay on UACC-62 melanoma.

For `O=C1CCC(=O)c2c1c(O)c1ccncc1c2O`, the TGI was 38.1 µM in the assay on HOP-92 NSCLC; 31.6 µM in the assay on IGROV1 ovarian; 45.3 µM in the assay with NCI-H226 lung; 31.9 µM with NCI-H23 lung; 30.7 µM in the assay with NCI-H460 lung; 24.5 µM in the assay on NCI-H522 lung. Moreover, the TGI in the assay with SW-620 colon is 35.8 µM; in the assay with UACC-62 melanoma it was 20.1 µM.

`O=[P@@]1(c2ccccc2)O[C@H](COCc2ccccc2)[C@@H](OCc2ccccc2)[C@H](OCc2ccccc2)[C@H]1NCc1ccccc1`: the GI50 in the assay on BT-549 breast was 2.89 µM; in the assay on NCI-H226 lung, 3.43 µM; in the assay with NCI-H23 lung it was 3.66 µM; in the assay with NCI-H460 lung, 2.59 µM; in the assay on NCI-H522 lung, 5.75 µM; in the assay with SW-620 colon it was 3.52 µM. In addition, the figures for the GI50 with T-47D breast and in the assay with UACC-62 melanoma were 2.85 µM and 2.92 µM, respectively. Moreover, the TGI with BT-549 breast was 16.2 µM; with NCI-H226 lung, 85.2 µM; in the assay on NCI-H23 lung, above 100 µM; in the assay on NCI-H460 lung, 7.11 µM; in the assay on NCI-H522 lung, above 100 µM; in the assay on SW-620 colon, above 100 µM. The values for the TGI with T-47D breast and in the assay with UACC-62 melanoma were 7.92 µM and 13.1 µM, respectively.

Regarding `CCOC(=O)/C=C/c1ccc(C#Cc2ccccc2)cc1`, the GI50 with HOP-92 NSCLC was above 100 µM; in the assay with NCI-H226 lung, above 100 µM; in the assay with NCI-H23 lung, 95 µM; in the assay with NCI-H460 lung, 66.1 µM; with SW-620 colon, above 100 µM; with T-47D breast, 86.8 µM. In addition, the GI50 in the assay with UACC-62 melanoma was 83.5 µM. In addition, the TGI in the assay on HOP-92 NSCLC, with NCI-H226 lung, with NCI-H23 lung, in the assay with NCI-H460 lung, in the assay on SW-620 colon and with T-47D breast was above 100 µM throughout. The TGI with UACC-62 melanoma was above 100 µM.
